Source: PubChem BioAssay (NCI)
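The compound was tested at five concentrations on cells cultured in 96-well plates, with a 48-hour exposure period. Here, GI50 denotes the concentration required for 50% inhibition of growth. At the TGI there is no net growth.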

How the values were obtained:
Assay in all cases: inhibition of tumour cell growth, NCI panel, 48 h
[1] = test system: A549 NSCLC
[2] = test system: OVCAR-3 ovarian
[3] = test system: SK-MEL-28 melanoma
[4] = test system: IGROV1 ovarian
[5] = test system: SNB-75 CNS
[6] = test system: HCT-15 colon
[7] = test system: PC-3 prostate
[8] = test system: MDA-MB-435
[9] = test system: CAKI-1 renal
[10] = test system: EKVX NSCLC
[11] = test system: SNB-19 CNS
[12] = test system: 786-0 renal
[13] = test system: K-562 leukemia
[14] = test system: SK-MEL-2 melanoma
[15] = test system: SF-268 CNS
[16] = test system: M14 melanoma
[17] = test system: ACHN renal
[18] = test system: SK-MEL-5 melanoma
[19] = test system: OVCAR-8 ovarian
[20] = test system: DU-145 prostate
[21] = test system: LOX IMVI melanoma
[22] = test system: HS 578T breast
[23] = test system: RXF 393 renal
[24] = test system: A498 renal
[25] = test system: MOLT-4 leukemia
[26] = test system: HCC-2998 colon
[27] = test system: MDA-MB-231 breast
[28] = test system: NCI-H23 lung
[29] = test system: MCF7 breast
[30] = test system: SN12C renal
[31] = test system: NCI-H522 lung
[32] = test system: SF-539 CNS
[33] = test system: SF-295 CNS
[34] = test system: COLO 205 colon
[35] = test system: HT29 colon
[36] = test system: SK-OV-3 ovarian
[37] = test system: BT-549 breast
[38] = test system: SR leukemia
[39] = test system: HOP-62 NSCLC
[40] = test system: NCI-H226 lung
[41] = test system: HCT-116 colon
[42] = test system: CCRF-CEM leukemia
[43] = test system: U251 CNS
[44] = test system: TK-10 renal
[45] = test system: OVCAR-4 ovarian
[46] = test system: MALME-3M melanoma
[47] = test system: KM12 colon
[48] = test system: UO-31 renal
[49] = test system: T-47D breast
[50] = test system: HL-60(TB) leukemia
[51] = test system: NCI/ADR-RES ovarian
[52] = test system: SW-620 colon
[53] = test system: MDA-MB-468 breast
[54] = test system: NCI-H460 lung
[55] = test system: OVCAR-5 ovarian
[56] = test system: UACC-257 melanoma
[57] = test system: UACC-62 melanoma
[58] = test system: HOP-92 NSCLC
[59] = test system: RPMI-8226 leukemia

CC(C)(C)c1ccc(NCc2cn(-c3ccc(C(=O)O)cc3)nc2-c2ccc(C#N)cc2)cc1
GI50 [1]: 3.77 µM
TGI [1]: 17.1 µM
GI50 [2]: 6.86 µM
TGI [2]: 21.9 µM
GI50 [3]: 4.3 µM
TGI [3]: 17.8 µM
GI50 [4]: 10.7 µM
TGI [4]: 25.6 µM
GI50 [5]: 6.97 µM
TGI [5]: 21.3 µM
GI50 [6]: 3.36 µM
TGI [6]: 12.6 µM
GI50 [7]: 5.74 µM
TGI [7]: 31.1 µM
GI50 [8]: 6.31 µM
TGI [8]: 32.7 µM
GI50 [9]: 8.23 µM
TGI [9]: 26.3 µM
GI50 [10]: 3.07 µM
TGI [10]: 12.5 µM
GI50 [11]: 4.44 µM
TGI [11]: 16.8 µM
GI50 [12]: 12.9 µM
TGI [12]: 27.6 µM
GI50 [13]: 3.48 µM
TGI [13]: 76.9 µM
GI50 [14]: 4.37 µM
TGI [14]: 18.3 µM
GI50 [15]: 7.21 µM
TGI [15]: 26 µM
GI50 [16]: 7.28 µM
TGI [16]: 25.9 µM
GI50 [17]: 6.12 µM
TGI [17]: 60.1 µM
GI50 [18]: 3.58 µM
TGI [18]: 13.5 µM
GI50 [19]: 4.66 µM
TGI [19]: 17.4 µM
GI50 [20]: 12.4 µM
TGI [20]: 38.2 µM
GI50 [21]: 7.3 µM
TGI [21]: 20.3 µM
GI50 [22]: 3.54 µM
TGI [22]: 27.2 µM
GI50 [23]: 6.94 µM
TGI [23]: 21.4 µM
GI50 [24]: 11.1 µM
TGI [24]: 23.4 µM
GI50 [25]: 4.34 µM
TGI [25]: > 100 µM
GI50 [26]: 3.31 µM
TGI [26]: 11.7 µM
GI50 [27]: 12.2 µM
TGI [27]: 27.5 µM
GI50 [28]: 11.8 µM
TGI [28]: 27.4 µM
GI50 [29]: 3.43 µM
TGI [29]: 21.6 µM
GI50 [30]: 7.81 µM
TGI [30]: 20.4 µM
GI50 [31]: 10.1 µM
TGI [31]: 27.8 µM
GI50 [32]: 5.96 µM
TGI [32]: 19.7 µM
GI50 [33]: 5.35 µM
TGI [33]: 20.7 µM
GI50 [34]: 3.18 µM
TGI [34]: 11.8 µM
GI50 [35]: 5.75 µM
TGI [35]: 21.4 µM
GI50 [36]: 16.1 µM
TGI [36]: 34.5 µM
GI50 [37]: 6.77 µM
TGI [37]: 22.4 µM
GI50 [38]: 3.03 µM
TGI [38]: 20.8 µM
GI50 [39]: 5.28 µM
TGI [39]: 20.8 µM
GI50 [40]: 10.8 µM
TGI [40]: 35.6 µM
GI50 [41]: 4.45 µM
TGI [41]: 17.3 µM
GI50 [42]: 3.73 µM
TGI [42]: 36.8 µM
GI50 [43]: 4.64 µM
TGI [43]: 17.5 µM
GI50 [44]: 13.7 µM
TGI [44]: 31 µM
GI50 [45]: 6.23 µM
TGI [45]: > 100 µM
GI50 [46]: 11.3 µM
TGI [46]: 28.3 µM
GI50 [47]: 3.45 µM
TGI [47]: 13 µM
GI50 [48]: 6.5 µM
TGI [48]: 21.1 µM
GI50 [49]: 4.57 µM
TGI [49]: > 100 µM
GI50 [50]: 2.83 µM
TGI [50]: 14.1 µM
GI50 [51]: 5.81 µM
TGI [51]: 23.4 µM
GI50 [52]: 7.65 µM
TGI [52]: 25.1 µM
GI50 [53]: 10.1 µM
TGI [53]: 34.3 µM
GI50 [54]: 4.41 µM
TGI [54]: 17 µM
GI50 [55]: 14.2 µM
TGI [55]: 28.7 µM
GI50 [56]: 8.15 µM
TGI [56]: 42.8 µM
GI50 [57]: 5.48 µM
TGI [57]: 19 µM
GI50 [58]: 8.12 µM
TGI [58]: 23.3 µM
GI50 [59]: 3.91 µM
TGI [59]: 25.2 µM
